Key:
[1] = test system: cellular histone deacetylase activity (Lys-Ac); experiment: Inhibition of cellular HDAC activity (Cell Lys-Ac); assay type: cell-based; settings: Lys-Ac substrate
[2] = molecular target: Histone Deacetylase 4 (HDAC4) catalytic domain (Homo sapiens (Human), UniProt P56524); experiment: Biochemical HDAC inhibition assay, fluorogenic substrate Boc-Lys(Tfa)-AMC
Description: The potency of compounds is quantified by measuring the Histone Deacetylase 4 (HDAC4) catalytic domain enzymatic activity using the fluorogenic substrate, Boc-Lys(Tfa)-AMC. The substrate is deacetylated to Boc-Lys-AMC by HDAC4. Cleavage by trypsin results in the release of the fluorophore AMC from the deacetylated substrate. The fluorescence of the sample is directly related to the histone deacetylase activity in the sample.
Stocks of 60 μL aliquots of the 10 mM compound in DMSO are prepared and stored at −20° C. From one stock aliquot of each compound to be tested and the reference compound, a 16-point serial dilution is prepared according to Table 1 using a 125 μL 16-channel Matrix multi-channel pipette (Matrix Technologies Ltd).
2 μL (200×) of each diluted solution and each control (full activity: 100% DMSO alone or full inhibition 1 mM) is stamped into V-bottomed polypropylene 384-well compound plates using either the Bravo (384-well head from Agilent) or 12.5 μL 16-channel Matrix multi-channel pipette (Matrix Technologies Ltd). Each well with the 200× compound solution is diluted 1:20 by the addition of 38 μL assay buffer+DMSO (10.5% DMSO, 45 mM Tris-HCl, 123 mM NaCl, 2.4 mM KCl, and 0.9 mM MgCl2 at pH 8.0 and equilibrated to room temperature).
The HDAC4 catalytic domain enzyme is human catalytic domain HDAC4 protein (amino acids 648-1032) with a C-terminal 6× histidine tag, produced by BioFocus. A working solution of enzyme is prepared from a 500 μg/mL stock aliquot of HDAC4 catalytic domain (thawed on ice) diluted to 0.2 μg/mL with assay buffer (50 mM Tris-HCl, 137 mM NaCl, 2.7 mM KCl, and 1 mM MgCl2 at pH 8 and equilibrated to room temperature) just prior to the addition of the enzyme to the assay.
5× (50 μM) substrate is prepared just prior to the addition to the assay. A 1 mM substrate stock is made by diluting a 100 mM Boc-Lys(Tfa)-AMC in DMSO solution 1:100 by adding it drop-wise to assay buffer (equilibrated to room temperature) while vortexing at slow speed to prevent precipitation. The 5× substrate is prepared by diluting the 1 mM substrate solution 1:20 by adding it drop-wise to assay buffer (equilibrated to room temperature) while vortexing at slow speed to prevent precipitation.
3× (30 μM) Developer/Stop Solution is prepared just prior to addition to the plate by diluting a stock solution of 10 mM reference compound 1:333 in 25 mg/mL trypsin (PAA Laboratories Ltd.) equilibrated to room temperature.
5 μL of each solution of 1:20 diluted compound from above is transferred to a clear bottomed, black, 384-well assay plate using the Bravo or the Janus (384-well MDT head from Perkin Elmer). Using a 16-channel Matrix multi-channel pipette, 35 μL of the working solution of HDAC4 catalytic domain enzyme (0.2 μg/mL in assay buffer) is transferred to the assay plate. […] The assay plate is then shaken for two minutes on an orbital shaker at 900 rpm (rotations per minute). Next the plate is incubated for 15 minutes at 37° C. The reaction is stopped by adding 25 μL of 3× (30 μM) developer/stop solution to the assay plates using either the Bravo, Janus or a 16-channel Matrix multi-channel pipette. Assay plates are then shaken for 5 minutes on an orbital shaker at 1200 rpm. Next, the assay plates are incubated at 37° C. for 1 hour in a tissue culture incubator. Finally, the fluorescence is measured (Excitation: 355 nm, Emission: 460 nm) using PerkinElmer EnVision in top read mode.

[3] = test system: cellular histone deacetylase enzymatic activity in Jurkat E6-1 cells; experiment: Inhibition of cellular HDAC activity, Boc-Lys(Tfa)-AMC substrate (Cell Lys-TFA); assay type: cell-based
Description: The potency of the compounds is quantified by measuring the cellular histone deacetylase enzymatic activity using the fluorogenic substrate, Boc-Lys(Tfa)-AMC. After penetration in Jurkat E6-1 cells, the substrate is deacetylated to Boc-Lys-AMC. After cell lysis and cleavage by trypsin, the fluorophore AMC is released from the deacetylated substrate only. The fluorescence of the sample is directly related to the histone deacetylase activity in the sample.
Jurkat E6.1 cells are cultured according to standard cell culture protocols in Jurkat E6.1 Growth Media (RPMI without phenol red, 10% FBS, 10 mM HEPES, and 1 mM Sodium Pyruvate). Jurkat E6.1 cells are counted using a Coulter Counter and resuspended in Jurkat E6.1 growth media at a concentration of 75,000 cells/35 μL. 35 μL or 75,000 cells is seeded into Greiner microtitre assay plates. The plates are then incubated at 37° C. and 5% CO2 while other assay components are being prepared.
Stocks of 70 μL aliquots of the 10 mM compound in DMSO are prepared and stored at −20° C. From one stock aliquot of each compound to be tested and the reference compound, a 16-point serial dilution is prepared according to Table 1 using a 125 μL 16-channel Matrix multi-channel pipette.
2 μL (200×) of each diluted solution and each control (full activity: 100% DMSO alone or full inhibition 1 mM) is stamped into V-bottom polypropylene 384-well compound plates using either the Bravo, Janus, or 12.5 μL 16-channel Matrix multi-channel pipette. Each well with the 200× compound solution is diluted 1:20 by the addition of 38 μL Jurkat assay buffer+DMSO (9.5% DMSO, RPMI without phenol red, 0.09% FBS, 9 mM Hepes, and 0.9 mM Sodium Pyruvate equilibrated to room temperature)
5× (500 μM) substrate is prepared just prior to the addition to the assay. The 5× substrate is prepared by diluting a 100 mM Boc-Lys(Tfa)-AMC in DMSO solution 1:200 by adding it drop-wise to Jurkat assay medium (RPMI without phenol red, 0.1% FBS, 10 mM Hepes, and 1 mM Sodium Pyruvate equilibrated to 37° C.) while vortexing at slow speed to prevent precipitation.
10 mL of 3× lysis buffer is prepared with 8.8 ml of 3× stock lysis buffer (50 mM Tris-HCl, pH 8.0, 137 mM NaCl, 2.7 mM KCl, 1 mM MgCl2, 1% Nonidet P40 Substitute equilibrated to room temperature) and 1.2 mL of 3 mg/mL Trypsin equilibrated to room temperature.
5 μL of each solution of 1:20 diluted compound from above is transferred to the Greiner microtitre assay plates with 75,000 cells/well using the Bravo. Cells are then incubated for 2 hours at 37° C. and 5% CO2. […] The cells are then incubated for 3 hours at 37° C. and 5% CO2. Next, 25 μL of 3× lysis buffer is added to each well using either the 125 μL 16 channel pipette or the Bravo. The assay plate is then incubated overnight (15-16 hours) at 37° C. and 5% CO2. The following day, the plates are shaken on an orbital shaker for 1 minute at 900 rpm. Finally the top read fluorescence (Excitation: 355 nm, Emission: 460 nm) is measured using PerkinElmer EnVision.

[4] = Homo sapiens, Jurkat E6.1, Lys-TFA substrate

Histone Deacetylase 4 (HDAC4) catalytic domain, sequence (P56524 648-1032): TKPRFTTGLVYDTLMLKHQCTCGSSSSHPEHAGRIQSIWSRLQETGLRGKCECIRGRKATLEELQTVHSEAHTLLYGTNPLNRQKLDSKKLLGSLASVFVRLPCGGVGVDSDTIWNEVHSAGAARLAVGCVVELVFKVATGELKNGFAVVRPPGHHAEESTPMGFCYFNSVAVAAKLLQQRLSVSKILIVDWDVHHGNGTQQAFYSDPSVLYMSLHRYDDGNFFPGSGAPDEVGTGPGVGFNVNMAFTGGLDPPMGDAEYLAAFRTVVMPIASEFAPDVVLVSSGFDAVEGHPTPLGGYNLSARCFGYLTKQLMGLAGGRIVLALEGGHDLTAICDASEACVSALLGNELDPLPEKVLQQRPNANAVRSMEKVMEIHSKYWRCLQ

Row | Structure (SMILES) | IC50 [1] | IC50 [2] | IC50 [3, 4] | IC50 ([3]; Lys-TFA substrate)
1 | COc1ccc(-c2nc3c(s2)C[C@@](C(=O)NO)(c2cccc(F)c2C)C3)nc1 [Example 71, (R)-5-(3-Fluoro-2-methylphenyl)-N-hydroxy-2-(5-methoxypyridin-2-yl)-5,6-dihydro-4H-cyclopenta[d]thiazole-5-carboxamide] | > 50000 nM | 95 nM | 56 nM | 
2 | Cc1cnccc1-n1ncc2c1C[C@](C(=O)NO)(c1cccc(F)c1C)C2 [Example 26, (S)-5-(3-Fluoro-2-methylphenyl)-N-hydroxy-1-(3-methylpyridin-4-yl)-1,4,5,6-tetrahydrocyclopenta[c]pyrazole-5-carboxamide] | > 50000 nM | 57 nM | 71 nM | 
3 | Cc1c(F)cccc1C1(C(=O)NO)CCc2nn(Cc3ccc(F)cc3)cc2C1 (stereo not drawn) [Example 36, 5-(3-Fluoro-2-methylphenyl)-1-(4-fluorobenzyl)-N-hydroxy-4,5,6,7-tetrahydro-1H-indazole-5-carboxamide and 5-(3-fluoro-2-methylphenyl)-2-(4-fluorobenzyl)-N-hydroxy-4,5,6,7-tetrahydro-2H-indazole-5-carboxamide] | > 50000 nM | 600 nM |  | 370 nM
4 | Cc1c(F)cccc1C1(C(=O)NO)CCc2ncncc2C1 (stereo not drawn) [Example 45, 6-(3-Fluoro-2-methylphenyl)-N-hydroxy-5,6,7,8-tetrahydroquinazoline-6-carboxamide] | > 50000 nM | 3700 nM | 2600 nM | 
5 | Cc1c(F)cccc1[C@]1(C(=O)NO)Cc2cnn(-c3ccccc3Cl)c2C1 [Example 7, (S)-1-(2-Chlorophenyl)-5-(3-fluoro-2-methylphenyl)-N-hydroxy-1,4,5,6-tetrahydrocyclopenta[c]pyrazole-5-carboxamide] | > 50000 nM | 15 nM | 13 nM | 
6 | Cc1c(F)cccc1[C@@]1(C(=O)NO)Cc2cnn(-c3ccccc3)c2C1 [Example 30, (R)-5-(3-Fluoro-2-methylphenyl)-N-hydroxy-1-phenyl-1,4,5,6-tetrahydrocyclopenta[c]pyrazole-5-carboxamide] | > 50000 nM | 1000 nM | 1700 nM | 
7 | Cc1c(F)cccc1C1(C(=O)NO)CCc2cn(CC(F)(F)F)nc2CC1 (single isomer, unassigned) [Example 85, E2-(abs)-6-(3-fluoro-2-methylphenyl)-N-hydroxy-2-(2,2,2-trifluoroethyl)-2,4,5,6,7,8-hexahydrocyclohepta[c]pyrazole-6-carboxamide] | > 50000 nM | 790 nM |  | 1800 nM
8 | Cc1ccccc1-c1nc2c(s1)[C@](C(=O)NO)(c1cccc(F)c1C)CC2 [Example 73, (S)-6-(3-Fluoro-2-methylphenyl)-N-hydroxy-2-(o-tolyl)-5,6-dihydro-4H-cyclopenta[d]thiazole-6-carboxamide] | > 50000 nM | 143 nM | 630 nM | 
9 | Cc1c(F)cccc1C1(C(=O)NO)Cc2nc(Cc3cccc(C(F)(F)F)c3)sc2C1 (stereo not drawn) [Example 63, 5-(3-Fluoro-2-methylphenyl)-N-hydroxy-2-(3-(trifluoromethyl)benzyl)-5,6-dihydro-4H-cyclopenta[d]thiazole-5-carboxamide] | > 50000 nM | 490 nM | 38 nM | 
10 | Cc1c(F)cccc1C1(C(=O)NO)CCc2c(cnn2-c2ccccc2)C1 (single isomer, unassigned) [Example 31, E1-(abs)-5-(3-Fluoro-2-methylphenyl)-N-hydroxy-1-phenyl-4,5,6,7-tetrahydro-1H-indazole-5-carboxamide] | > 50000 nM | 820 nM |  | 72 nM
11 | Cc1c(F)cccc1C1(C(=O)NO)Cc2ccccc2C1 [Example 82, 2-(3-Fluoro-2-methylphenyl)-N-hydroxy-2,3-dihydro-1H-indene-2-carboxamide] | > 50000 nM | 110 nM | 1800 nM | 
